Laboratory results taken from patent US20180193412A1, “Method of In Vivo Treatment” (Hexima Limited, priority 2015, published 2018).

Tests used:
[1] = test system: clinical isolates of T. rubrum; assay: Cell survival assay for clinical isolates of T. rubrum (plating on agar after defensin treatment, FIG. 3); assay type: cell-based, Trichophyton rubrum
Procedure: FIG. 3(A) is a photographic representations of surviving colonies of T. rubrum clinical isolate 14-01 grown on agar plates after treatment with 100 μM HXL008 for 72 h.
FIG. 3(B) is a photographic representation of surviving colonies of T. rubrum clinical isolate 14-02 grown on agar plates after treatment with 100 μM HXL008 for 72 h.
FIG. 3(C) is a photographic representation of surviving colonies of T. rubrum clinical isolate 14-03 grown on agar plates after treatment with 100 μM HXL008 for 72 h.
FIG. 3(D) is a photographic representation of surviving colonies of T. rubrum clinical isolate 13-04 grown on agar plates after treatment with 100 μM HXL008 for 72 h.
After incubation for 72 h, the media from wells containing clinical isolates of T. rubrum incubated with 100 […] HXL008 was plated onto fresh Sabouraud dextrose agar. Plates were incubated at 30° C. for 5 days to allow colonies to develop before being photographed.

[2] = test system: C. albicans; assay: Inhibition of growth of Candida albicans, Example 2 antifungal assay; assay type: cell-based; details: Table 4; ½ strength PDB, 30° C., A595
Procedure: (§1) The inhibitory effects of the plant defensins on the growth of Candida albicans, Aspergillus fumigatus (obtained from the National Mycology Reference Centre, South Australia Pathology at the Women's and Children's Hospital, Adelaide, Australia), C. glabrata, C. tropicalis, A. flavus, A. niger, A. fumigants, Cryptococcus neoformans and C. gattii (obtained from Dee Carter, University of Sydney, New South Wales, Australia) are measured essentially as described by Broekaert et al. (1990) FEMS Microbiol Lett 69:55-59.
(§2) Spores of A. flavus. A. niger and A. fumigatus are isolated from sporulating fungus growing on ½ strength Sabouraud dextrose agar. Spores were removed from the plates by the addition of ½ strength potato dextrose broth (PDB). C. albicans, C. glabrata, C. tropicalis, C. neoformans and C. gattii cells are grown in Yeast Peptone Broth (YPD) for 16 h. Spore and cell concentrations are measured using a hemocytometer.
(§3) Antifungal assays are conducted in 96 well microtitre plates essentially as herein described. Wells are loaded with 20 μL of filter sterilized (0.22 μm syringe filter, Millipore) defensin (10× stock for each final concentration) or water and 80 μL of 5×10^4 spores/mL (A. flavus, A. niger, A. fumigatus), 5,000 cells/mL (C. albicans, C. glabrata, C. tropicalis) or 1×10^6 cells/mL (C. neoformans, C. gattii) in ½ strength PDB. The plates are incubated at 30° C. Fungal growth is assayed by measuring optical density at 595 nm (A595) using a microtitre plate reader (SpectraMax Pro M2; Molecular Devices. Growth is allowed to proceed until the optical density (OD) of the fungus in the absence of any test defensin reached an OD of 0.2. Each test is performed in duplicate.

[3] = test system: A. fumigatus; assay: Inhibition of growth of Aspergillus fumigatus, Example 2 antifungal assay; assay type: cell-based; details: ½ strength PDB, 30° C., A595
Procedure: as §1, §2, §3

[4] = test system: C. gattii; assay: Inhibition of growth of C. gattii, Example 2 antifungal assay; assay type: cell-based; details: ½ strength PDB, 30° C., A595
Procedure: as §1, §2, §3

[5] = test system: B. subtilis; assay: Inhibition of the growth of Bacillus subtilis (OD595, 18 hours); assay type: cell-based; details: at the concentrations tested (0.3125-20 μM)
Procedure: A single E. coli or B. subtilis colony was used to inoculate 5 ml of Luria-Bertani media and grown overnight at 37° C. The following day, the optical density of the culture was measured and the bacteria diluted to an optical density at 600 nm (OD600) of 0.01 in Mueller-Hinton Broth. Diluted E. coli or B. subtilis were added to 96-well plates with defensins at concentrations of 20 μM, 10 μM, 5 μM, 2.5 μM, 1.25 μM, 0.625 μM or 0.3125 μM. Plates were read at OD595 to obtain time zero data points. Plates were incubated at 37° C. for 18 hours before reading again at OD595 to assess the amount of bacterial growth.

[6] = test system: Trichophyton rubrum, T. interdigitale, Microsporum fulvum and C. albicans; assay: Inhibition assays of Example 1, summary across the range of fungal pathogens; assay type: cell-based; details: summary of Table 3, at the concentrations tested
Procedure: The inhibitory effects of the plant defensins on the growth of Trichophyton rubrum, T. interdigitale, Microsporum fulvum and C. albicans (all obtained from the National Mycology Reference Centre, South Australia Pathology at the Women's and Children's Hospital, Adelaide, Australia) are measured essentially as described by Broekaert et al. (1990) FEMS Microbiol Lett 69:55-59.
as §2, with “T. rubrum, T. interdigitale” for “A. flavus. A. niger”, “M. fulvum” for “A. fumigatus”, “albicans” for “albicans, C. glabrata, C. tropicalis, C. neoformans and C. gattii”
as §3, with “Ξ m” for “μm”, “(T. rubrum, T. interdigitale, M. fulvum) or” for “(A. flavus, A. niger, A. fumigatus),”, “albicans)” for “albicans, C. glabrata, C. tropicalis) or 1×10^6 cells/mL (C. neoformans, C. gattii)”

Q: “HXL008: Class I plant defensin from Picramnia pentandra (KVCTKPSKFFKGLCGTDGACTTACRKEGLHSGYCQLKGFLNSVCVCRKHC; HXL008 Picramnia pentandra)” was tested. Which “Surviving colonies on agar plates after incubation with defensin” value ([1]; 100 µg/mL HXL008 for 72 h, plated, 30° C. for 5 days) did it give?
A: 1-3 colonies

Q: What about the “Cell survival of T. rubrum clinical isolates” value ([1]; incubated with HXL008 for 72 h) of the same substance?
A: almost all the cells were dead

Q: What about the “IC50 against C. albicans” value [2] of the same substance?
A: 20 µg/mL

Q: What about the “IC50 against A. fumigatus” value [3] of the same substance?
A: 7.5 µg/mL

Q: And the “IC50 against C. gattii” value [4]?
A: 12 µg/mL

Q: And the “Inhibition of growth of B. subtilis” value [5]?
A: did not inhibit the growth

Q: And the “Activity across the range of fungal pathogens” value [6]?
A: most effective
